Key:
Histamine H4 receptor [1] = molecular target: T1, Histamine H4 receptor (Homo sapiens, UniProt Q9H3N8); experiment: Intrinsic activity at human histamine H4 receptor expressed in human SH-SY5Y cell membranes by [35S]GTPgammaS binding assay; assay type: functional
Histamine H4 receptor [2] = molecular target: T1, Histamine H4 receptor; experiment: Antagonist activity at human histamine H4 receptor expressed in human SH-SY5Y cell membranes assessed as inhibition of Imetit-induced [35S]GTPgammaS binding; assay type: functional
HEK293 = experiment: Selectivity ratio of Ki for human H3 receptor expressed in HEK293 cell membranes to Kb for human histamine H4 receptor expressed in human SH-SY5Y cell membranes; assay type: cell-based
Histamine H3 receptor [3] = molecular target: T2, Histamine H3 receptor (Homo sapiens, UniProt Q9Y5N1); experiment: Displacement of [125I]iodoproxyfan from human H3 receptor expressed in HEK293 cell membranes after 1 hr
T2 sequence (Q9Y5N1 whole entry): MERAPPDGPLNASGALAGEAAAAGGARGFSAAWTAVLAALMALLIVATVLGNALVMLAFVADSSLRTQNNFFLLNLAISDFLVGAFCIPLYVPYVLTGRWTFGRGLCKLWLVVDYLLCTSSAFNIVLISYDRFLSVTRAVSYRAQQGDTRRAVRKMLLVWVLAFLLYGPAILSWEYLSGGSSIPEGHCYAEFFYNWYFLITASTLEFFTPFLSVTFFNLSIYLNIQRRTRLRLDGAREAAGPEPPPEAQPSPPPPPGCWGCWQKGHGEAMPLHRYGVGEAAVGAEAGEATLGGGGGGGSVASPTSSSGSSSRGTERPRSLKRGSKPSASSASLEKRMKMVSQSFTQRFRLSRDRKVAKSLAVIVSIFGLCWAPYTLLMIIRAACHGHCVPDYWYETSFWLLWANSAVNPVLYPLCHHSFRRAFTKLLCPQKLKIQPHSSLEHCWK

Histamine H4 receptor [4] = molecular target: T1, Histamine H4 receptor; experiment: Binding affinity to histamine H4 receptor (unknown origin)
Histamine H3 receptor [5] = molecular target: T2, Histamine H3 receptor; experiment: Binding affinity to histamine H3 receptor (unknown origin)
Histamine H3 receptor [6] = molecular target: T2, Histamine H3 receptor; experiment: Antagonist activity at human histamine H3 receptor

T1 sequence (Q9H3N8 whole entry): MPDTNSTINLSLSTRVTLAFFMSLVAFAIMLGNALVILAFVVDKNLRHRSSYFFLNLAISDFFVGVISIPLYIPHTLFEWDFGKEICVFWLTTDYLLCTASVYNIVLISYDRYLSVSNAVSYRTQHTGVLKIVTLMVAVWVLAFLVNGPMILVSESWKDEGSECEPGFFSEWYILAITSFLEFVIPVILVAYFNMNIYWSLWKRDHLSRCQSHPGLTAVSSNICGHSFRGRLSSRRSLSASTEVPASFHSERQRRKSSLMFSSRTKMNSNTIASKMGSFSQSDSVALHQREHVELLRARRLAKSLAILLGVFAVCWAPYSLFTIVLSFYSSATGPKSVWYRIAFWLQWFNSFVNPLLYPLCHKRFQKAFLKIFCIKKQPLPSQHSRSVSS

Row | SMILES | Intrinsic activity (Histamine H4 receptor [1]) | Kb (Histamine H4 receptor [2]) [nM] | other results
1 | Cc1[nH]cnc1CCCOC(c1ccccc1)c1nc2ccccc2s1 (configuration not stated) | 0 | 1.6 | 
2 | c1ccc(C(OCCCc2c[nH]cn2)c2nc3ccccc3s2)cc1 (configuration not stated) | 0 | 1.1 | Selectivity ratio (HEK293): 31; Ki (Histamine H3 receptor [3]): 34 nM
3 | Cn1cnc(CCN)c1 [N-METHYLHISTAMINE] |  |  | Ki (Histamine H4 receptor [4]): 11000 nM; Ki (Histamine H3 receptor [5]): 20000 nM
4 | c1ccc(C(OCCCc2c[nH]cn2)c2cccnc2)cc1 (configuration not stated) | 0 | 32 | 
5 | c1ccc(C(OCCCc2c[nH]cn2)c2ccc3ccccc3c2)cc1 (configuration not stated) | 0 | 100 | 
6 | c1ccc(C(OCCc2c[nH]cn2)c2nc3ccccc3s2)cc1 (configuration not stated) | 0 | 3.7 | 
7 | c1ccc(C(OCCCCn2ccnc2)c2nc3ccccc3s2)cc1 (configuration not stated) | 0 | > 10000 | 
8 | Cn1cncc1CCCOC(c1ccccc1)c1nc2ccccc2s1 (configuration not stated) | 0 | > 10000 | 
9 | c1ccc(C(OCCn2ccnc2)c2nc3ccccc3s2)cc1 (configuration not stated) | 0 | > 10000 | 
10 | c1ccc(-c2ccc(C(OCCCc3c[nH]cn3)c3ccccc3)cc2)cc1 (configuration not stated) | 0 | 17 | 
11 | Cc1nc(CCCOC(c2ccccc2)c2nc3ccccc3s2)c[nH]1 (configuration not stated) | 0 | > 10000 | 
12 | c1ccc(C(OCCCn2ccnc2)c2nc3ccccc3s2)cc1 (configuration not stated) | 0 | > 10000 | 
13 | c1ccc(C(OCCCc2c[nH]cn2)c2cncnc2)cc1 (configuration not stated) | 0 | 29 | 
14 | c1ccc(C(OCCCc2c[nH]cn2)c2ccccc2)cc1 | 0 | 19 | Selectivity ratio (HEK293): 0.9; Ki (Histamine H3 receptor [6]): 17 nM; Ki (Histamine H3 receptor [3]): 17 nM
15 | c1ccc(C(OCc2c[nH]cn2)c2nc3ccccc3s2)cc1 (configuration not stated) | 0 | 399 | 
16 | Cn1cnc(CCCOC(c2ccccc2)c2nc3ccccc3s2)c1 (configuration not stated) | 0 | > 10000 | 

— ChEMBL document CHEMBL3862009 (Bioorg Med Chem Lett, 2016)
